According to US20250152564A1, “PROPYLENE KETONE-CONTAINING BIOINHIBITOR, PREPARATION METHOD THEREFOR, AND USE THEREOF” (SHANGHAI HANSOH BIOMEDICAL CO., LTD., priority 2022, published 2025):

Tests used:
FGFR2 = FGFR2 (Homo sapiens (Human), UniProt P21802); assay: TR-FRET kinase inhibition assay, FGFR2; assay type: biochemical; conditions: ATP Km concentration (30 μM)
Experimental: (§1) To measure the IC50 values of the compounds against FGFR1, FGFR2, FGFR3, FGFR4, and FGFR2 V564F at ATP Km concentrations by TR-FRET method.
(§2) TR-FRET (time-resolved fluorescence resonance energy transfer) method was used to detect the inhibitory activity of the compounds on FGFR1, FGFR2, FGFR3, FGFR4, and FGFR2 V564F kinase region fragments. The highest detection concentration of the compounds in 5 kinase experiments was 1000 nM, which was diluted in 3 folds, with a total of 11 concentrations (1000 nM to 0.017 nM). A kinase buffer (50 mM HEPES pH 7.5, 1 mM EGTA, 10 mM MgCl2, 2 mM DTT, and 0.01% Tween-20) was used to prepare 4× enzyme solution, 4× compound solutions diluted in gradient, and a 2×ATP/Peptide substrate solution. To a 384-well plate, 2.5 μL of enzyme solution and 2.5 μL of diluted […] compound solution were added, and 5 μL of 2×ATP/Peptide substrate solution was then added. After reacting at room temperature for 60 minutes for FGFR1, FGFR2, FGFR3, and FGFR2 V564F kinases, and 120 minutes for FGFR4 kinase, 10 μL of a 2× termination and detection mixed liquid prepared with 1×LANCE detection buffer with an EDTA concentration of 20 mM and a Europium-anti-phosphotyrosine (PT66) concentration of 2 nM was added to each well of the plate. After reacting at room temperature for 60 minutes for FGFR1, FGFR2, FGFR3, and FGFR4, and 30 minutes for FGFR2 V564F, the fluorescence signal value in each well of the plate was measured by a microplate reader.
(§3) 1) Inhibition rate (%): Calculation was performed on the raw data (665 nm/620 nm reading ratio) according to the following formula to obtain the inhibition rate. Inhibition rate %=[(mean value in positive control well−value in sample well)/(mean value in positive control well−mean value in negative control well)]×100, wherein the positive control well was a reaction well without a compound […], and the negative control well was a reaction wells without an enzyme.
(§4) 2) Curve fitting: Log(inhibitor) vs. response—Variable slope (four parameters) in GraphPad Prism 6 was used for fitting equation analysis of the compound concentration and the corresponding inhibition rate, and the curve was fitted to obtain the IC50 values of the compounds.

FGFR1 = FGFR1 (Homo sapiens (Human), UniProt P11362); assay: TR-FRET kinase inhibition assay, FGFR1; assay type: biochemical; conditions: ATP Km concentration (30 μM)
FGFR1, sequence (P11362 478-767): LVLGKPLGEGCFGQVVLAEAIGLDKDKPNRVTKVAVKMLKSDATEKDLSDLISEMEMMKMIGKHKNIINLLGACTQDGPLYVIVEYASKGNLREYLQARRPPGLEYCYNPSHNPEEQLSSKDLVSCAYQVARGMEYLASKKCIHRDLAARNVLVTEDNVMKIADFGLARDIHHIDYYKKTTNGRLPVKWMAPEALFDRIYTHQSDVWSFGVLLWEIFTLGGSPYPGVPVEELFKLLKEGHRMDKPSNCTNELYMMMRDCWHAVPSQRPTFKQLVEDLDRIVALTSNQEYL
Experimental: as §1, §2, §3, §4

NCI-H716 cells = assay: CellTiter-Glo cell proliferation inhibition, NCI-H716; assay type: cell-based; conditions: Homo sapiens, 72 h, read-out: NCI-H716 cell proliferation inhibition rate IC50
Experimental: (§5) To evaluate inhibitory effects of the compounds on the proliferation of NCI-H716, SNU-16 and BaF3-FGFR2-BICC1 V564F cells by cell proliferation inhibition experiments.
(§6) CellTiter-Glo method was used to detect inhibitory effects of the compounds on the proliferation of NCI-H716, SNU-16 and BaF3 FGFR2-BICC1 V564F cells. The highest detection concentration of the compounds was 1000 nM, which was diluted in 3 folds, with a total of 9 concentrations (1000 nM to 0.15 nM). After the cells were plated at an appropriate density, compounds were added the next day and incubated for 72 h before detection using the […] detection kit.
as §3, with “(%):” for “(%): Calculation was performed on the raw data (665 nm/620 nm reading ratio) according to the following formula to obtain the inhibition rate.”
as §4

FGFR2 V564F = FGFR2 V564F (Homo sapiens (Human), UniProt P21802, V564F); assay: TR-FRET kinase inhibition assay, FGFR2 V564F; assay type: biochemical; conditions: ATP Km concentration (20 μM)
FGFR2 V564F, sequence (P21802 481-770 V564F): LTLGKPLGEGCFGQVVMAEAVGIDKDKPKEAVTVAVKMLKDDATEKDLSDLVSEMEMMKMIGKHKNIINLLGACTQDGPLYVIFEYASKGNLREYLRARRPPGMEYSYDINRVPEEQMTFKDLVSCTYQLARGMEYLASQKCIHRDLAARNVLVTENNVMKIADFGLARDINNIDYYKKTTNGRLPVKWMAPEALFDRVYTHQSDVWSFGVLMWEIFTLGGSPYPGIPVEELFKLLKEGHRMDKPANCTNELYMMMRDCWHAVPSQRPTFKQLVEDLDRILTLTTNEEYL
Experimental: as §1, §2, §3, §4

[1] = system: BaF3 FGFR2-BICC1 V564F cells; assay: CellTiter-Glo cell proliferation inhibition, BaF3 FGFR2-BICC1 V564F; assay type: cell-based; conditions: Mus musculus, 72 h, read-out: BaF3 FGFR2-BICC1 V564F inhibitory activity IC50
Experimental: as §5, §6
as §3, with “(%):” for “(%): Calculation was performed on the raw data (665 nm/620 nm reading ratio) according to the following formula to obtain the inhibition rate.”
as §4

[2] = Pharmacokinetic experiment in SD rats after oral administration; assay type: in vivo; conditions: 5 mg/kg, plasma
Experimental: To study the pharmacokinetic behavior of the compounds of the present invention in the rat body (plasma) after oral administration at a dose of 5 mg/kg using SD rats as test animals.
3 SD rats/group, male, from Shanghai Jiesijie Experimental Animal Co., Ltd., animal production license number (SCXK (Shanghai) 2013-0006 N0.311620400001794).
PO, 10% solutol HS15-0.5% CMC-Na was dissolved by ultrasound and prepared into a clear solution or homogeneous suspension.
3 SD rats/group, male; p.o. respectively at a dose of 5 mg/kg and an administration volume of 10 mL/kg after the […] were fasted overnight.
After oral administration to rats, at 0.25, 0.5, 1, 2, 4, 6, 8 and 24 hours, 0.2 mL of blood was collected from the jugular vein, placed in an EDTA-K2 test tube, centrifuged at 6000 rpm for 6 min at 4° C. to separate the plasma, which was stored at −80° C.
1) 100 μL of acetonitrile was added to 20 μL of plasma sample for pelleting, and it was mixed and centrifuged at 3500×g for 5-20 min.
2) The treated supernatant solution was taken and subjected to LC/MS/MS to analyze the concentrations of the test compounds. LC/MS/MS analysis instrument: AB Sciex API 4000 Qtrap.
• Liquid phase conditions: Shimadzu LC-20AD pump • Chromatographic column: Waters Xbridge C18 5 μm, 4.6×50 mm mobile phase: liquid A was 0.1% aqueous formic acid solution, and liquid B was methanol • Flow rate: 1.0 mL/min • Elution time: 0-4.0 min, the eluent was as follows: […]

FGFR2, sequence (P21802 481-770): as the sequence (P21802 481-770 V564F) above, with F84V counted along it

Compound	IC50 (FGFR2) [nM]	IC50 (FGFR1) [nM]	IC50 (NCI-H716 cells) [nM]	IC50 (FGFR2 V564F) [nM]	IC50 [1] [nM]	AUC(0-t) ([2]; male, Sprague-Dawley (SD), rat, po, read-out: Area under the curve AUC0-t) [ng·h/mL]	AUC(0-inf) ([2]; male, Sprague-Dawley (SD), rat, po, read-out: Area under the curve AUC0-∞) [ng·h/mL]	half-life ([2]; male, Sprague-Dawley (SD), rat, po, read-out: Half-life t1/2 (converted)) [h]	MRT ([2]; male, Sprague-Dawley (SD), rat, po, read-out: Mean residence time MRT) [h]	Cmax ([2]; male, Sprague-Dawley (SD), rat, po, read-out: Plasma concentration Cmax) [ng/mL]	Time to peak tmax ([2]; p.o.) [h]
C=CC(=O)N1CC[C@H](n2nc(C#Cc3cc4ncn(CC)c4cc3F)c3c(N)ncc(C(=O)C4CC4)c32)C1 [Example 61, (S)-1-(3-(4-amino-7-(cyclopropanecarbonyl)-3-((1-ethyl-6-fluoro-1H-benzo[d]imidazol-5-yl)ethynyl)-1H-pyrazolo[4,3-c]pyridin-1-yl)pyrrolidin-1-yl)prop-2-en-1-one]	0.8	2.2	1.77	0.4	1	–	–	–	–	–	–
C=CC(=O)N1CC[C@H](n2nc(C#Cc3ccn4ccnc4c3)c3c(N)ncc(C(C)=O)c32)C1 [Example 77, (S)-1-(3-(7-acetyl-4-amino-3-(imidazo[1,2-a]pyridine-7-ethynylene)-1H-pyrazolo[4,3-c]pyridin-1-yl)pyrrolidine-1-methyl)prop-2-en-1-one]	1.8	–	0.92	1.4	2.9	–	–	–	–	–	–
C=CC(=O)N1CC[C@H](n2nc(C#Cc3ccn4ccnc4c3)c3c(N)ncc(C(=O)C4CC4)c32)C1 [Example 79, (S)-1-(3-(4-amino-7-(cyclopropanecarbonyl)-3-(imidazo[1,2-a]pyridine-7-ethynylene)-1H-pyrazolo[4,3-c]pyridin-1-yl)pyrrolidine-1-methyl)prop-2-en-1-one]	0.7	4.5	1.2	0.4	1.1	–	–	–	–	–	–
C=CC(=O)N1CC[C@H](n2nc(C#Cc3cc4ncn(C)c4cc3F)c3c(N)ncc(-c4nccs4)c32)C1 [Example 9, (S)-1-(3-(4-amino-3-((6-fluoro-1-methyl-1H-benzo[d]imidazol-5-yl)ethynyl)-7-(thiazol-2-yl)-1H-pyrazolo[4,3-c]pyridin-1-yl)pyrrolidin-1-yl)prop-2-en-1-one]	2.2	–	1.82	1	1.6	–	–	–	–	–	–
C=CC(=O)N1CC[C@H](n2nc(C#Cc3ccc4c(c3)ncn4CC)c3c(N)ncc(C(=O)C4CC4)c32)C1 [Example 58, (S)-1-(3-(4-amino-7-(cyclopropanecarbonyl)-3-((1-ethyl-1H-benzo[d]imidazol-5-yl)ethynyl)-1H-pyrazolo[4,3-c]pyridin-1-yl)pyrrolidin-1-yl)prop-2-en-1-one]	1.2	3	1.94	0.5	0.4	–	–	–	–	–	–
C=CC(=O)N1CC[C@H](n2nc(C#Cc3cc4ncn(C)c4cc3F)c3c(N)ncc(C(C)=O)c32)C1 [Example 8, (S)-1-(3-(7-acetyl-4-amino-3-((6-fluoro-1-methyl-1H-benzo[d]imidazol-5-yl)ethynyl)-1H-pyrazolo[4,3-c]pyridin-1-yl)pyrrolidin-1-yl)prop-2-en-1-one]	–	–	1.74	–	0.4	–	–	–	–	–	–
C=CC(=O)N1CC[C@H](n2nc(C#Cc3ccc4csnc4c3)c3c(N)ncc(C(C)=O)c32)C1 [Example 89, (S)-1-(3-(7-acetyl-4-amino-3-(benzo[c]isothiazole-6-ethynylene)-1H-pyrazolo[4,3-c]pyridin-1-yl)pyrrolidine-1-methyl)prop-2-en-1-one]	0.4	2.7	0.94	0.7	1.6	–	–	–	–	–	–
C=CC(=O)N1CC[C@H](n2nc(C#Cc3cc4ncn(C5CC5)c4cc3Cl)c3c(N)ncc(C(=O)CC)c32)C1 [Example 45, (S)-1-(3-(4-amino-3-((6-chloro-1-cyclopropyl-1H-benzo[d]imidazol-5-yl)ethynyl)-7-propionyl-1H-pyrazolo[4,3-c]pyridin-1-yl)pyrrolidin-1-yl)prop-2-en-1-one]	–	–	1.84	0.7	0.6	1440	1460	4.3	4.59	290	2
C=CC(=O)N1CC[C@H](n2nc(C#Cc3ccc4csnc4c3)c3c(N)ncc(C(=O)CC)c32)C1 [Example 90, (S)-1-(3-(4-amino-3-(benzo[c]isothiazole-6-ethynylene)-7-propionyl-1H-pyrazolo[4,3-c]pyridin-1-yl)pyrrolidine-1-methyl)prop-2-en-1-one]	1.6	–	0.98	3.1	3.2	–	–	–	–	–	–
C=CC(=O)N1CC[C@H](n2nc(C#Cc3ccc4csnc4c3)c3c(N)ncc(C(=O)C4CC4)c32)C1 [Example 91, (S)-1-(3-(4-amino-3-(benzo[c]isothiazole-6-ethynylene)-7-(cyclopropanecarbonyl)-1H-pyrazolo[4,3-c]pyridin-1-yl)pyrrolidine-1-methyl)prop-2-en-1-one]	1	3.9	0.97	1.1	0.8	–	–	–	–	–	–
C=CC(=O)N1CC[C@H](n2nc(C#Cc3cc4ncn(C5CC5)c4cc3F)c3c(N)ncc(C(C)=O)c32)C1 [Example 7, (S)-1-(3-(7-acetyl-4-amino-3-((1-cyclopropyl-6-fluoro-1H-benzo[d]imidazol-5-yl)ethynyl)-1H-pyrazolo[4,3-c]pyridin-1-yl)pyrrolidin-1-yl)prop-2-en-1-one]	1	1.3	1.26	0.3	0.9	–	–	–	–	–	–
C=CC(=O)N1CC[C@H](n2nc(C#Cc3ccc4c(c3)ncn4C)c3c(N)ncc(C(=O)C4CC4)c32)C1 [Example 65, (S)-1-(3-(4-amino-7-(cyclopropanecarbonyl)-3-((1-methyl-1H-benzo[d]imidazol-5-yl)ethynyl)-1H-pyrazolo[4,3-c]pyridin-1-yl)pyrrolidin-1-yl)prop-2-en-1-one]	0.7	2.8	1.5	0.5	1.4	–	–	–	–	–	–
C=CC(=O)N1CC[C@H](n2nc(C#Cc3ccc4cn(C)nc4c3)c3c(N)ncc(C(=O)CC)c32)C1 [Example 83, (S)-1-(3-(4-amino-3-((2-methyl-2H-indazol-6-yl)alkynyl)-7-propionyl-1H-pyrazolo[4,3-c]pyridin-1-yl)pyrrolidine-1-methyl)prop-2-en-1-one]	0.3	1.7	0.82	0.3	0.7	–	–	–	–	–	–
